Experimental findings from the supplement of paper PMC10307832 are described below.

What all share (test): relative viability (nuclei count vs DMSO), 5 days (fraction); higher = more cells survive
Compound in the test “Bosutinib + Pemetrexed”: COc1cc(Nc2c(C#N)cnc3cc(OCCCN4CCN(C)CC4)c(OC)cc23)c(Cl)cc1Cl [Bosutinib] + Nc1nc2[nH]cc(CCc3ccc(C(=O)N[C@@H](CCC(=O)O)C(=O)O)cc3)c2c(=O)[nH]1 [Pemetrexed] (partner 0.2 µM)
Summed up:
(§1)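 The day after seeding in 1536-well plates, lung cancer cell lines were treated by pin tool with a single drug, or with a fixed anchor-drug dose together with five library-drug doses (not always all listed) in √10 steps. After 5 days, a combined fix-and-stain solution (final 0.05% Triton X-100, 1% formaldehyde, 1 ug/ml Hoechst) was added. Nuclei counted on 4× images gave relative viability as treated counts over vehicle counts, reported as the median of duplicate plates.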

Compound in the test “Bosutinib + Decitabine”: COc1cc(Nc2c(C#N)cnc3cc(OCCCN4CCN(C)CC4)c(OC)cc23)c(Cl)cc1Cl [Bosutinib] + Nc1ncn([C@H]2C[C@H](O)[C@@H](CO)O2)c(=O)n1 [Decitabine] (partner 2 µM)
In outline: as §1

Compound in the test “Bosutinib + Bortezomib”: COc1cc(Nc2c(C#N)cnc3cc(OCCCN4CCN(C)CC4)c(OC)cc23)c(Cl)cc1Cl [Bosutinib] + CC(C)C[C@H](NC(=O)[C@H](Cc1ccccc1)NC(=O)c1cnccn1)B(O)O [Bortezomib] (partner 0.002 µM)
In outline:
as §1

Compound in the test “Bosutinib + Crizotinib”: COc1cc(Nc2c(C#N)cnc3cc(OCCCN4CCN(C)CC4)c(OC)cc23)c(Cl)cc1Cl [Bosutinib] + C[C@@H](Oc1cc(-c2cnn(C3CCNCC3)c2)cnc1N)c1c(Cl)ccc(F)c1Cl [Crizotinib] (partner 1 µM)
Summed up:
as §1

Compound in the test “Bosutinib + OSI-027”: COc1cc(Nc2c(C#N)cnc3cc(OCCCN4CCN(C)CC4)c(OC)cc23)c(Cl)cc1Cl [Bosutinib] + COc1cccc2cc(-c3nc([C@H]4CC[C@H](C(=O)O)CC4)n4ncnc(N)c34)[nH]c12 [OSI-027] (partner 0.5 µM)
In outline:
as §1

Take NCI-H3122: the relative viability with Bosutinib + Pemetrexed (first compound 0.01 µM) was 0.201; in the test with Bosutinib + Pemetrexed (first compound 0.03162 µM), 0.199; in the test with Bosutinib + Pemetrexed (first compound 0.1 µM) it was 0.207; in the test with Bosutinib + Pemetrexed (first compound 1 µM) it was 0.202; with Bosutinib + Decitabine (first compound 0.01 µM) it was 0.43; with Bosutinib + Decitabine (first compound 0.03162 µM) it was 0.462. Besides, the relative viability with Bosutinib + Decitabine (first compound 0.1 µM) was determined as 0.388; with Bosutinib + Decitabine (first compound 1 µM), 0.538; with Bosutinib + Bortezomib (first compound 0.01 µM), 1; in the test with Bosutinib + Bortezomib (first compound 0.03162 µM), 1.1; in the test with Bosutinib + Bortezomib (first compound 0.1 µM) it was 1.04; in the test with Bosutinib + Bortezomib (first compound 1 µM), 1.06. In addition, the relative viability came out at 0.287 in the test with Bosutinib + Crizotinib (first compound 0.01 µM); 0.282 in the test with Bosutinib + Crizotinib (first compound 0.03162 µM); 0.328 with Bosutinib + Crizotinib (first compound 0.1 µM); 0.322 in the test with Bosutinib + Crizotinib (first compound 1 µM); 1.05 with Bosutinib + OSI-027 (first compound 0.01 µM); 1.04 with Bosutinib + OSI-027 (first compound 0.03162 µM). The values for the relative viability with Bosutinib + OSI-027 (first compound 0.1 µM) and with Bosutinib + OSI-027 (first compound 1 µM) were 1.03 and 1.17, respectively.

On to PC-3 [JPC-3], for which the relative viability with Bosutinib + Pemetrexed (first compound 0.01 µM) is 1.1; with Bosutinib + Pemetrexed (first compound 0.03162 µM), 1.08; with Bosutinib + Pemetrexed (first compound 0.1 µM), 1.11; with Bosutinib + Pemetrexed (first compound 1 µM), 0.688; with Bosutinib + Decitabine (first compound 0.01 µM) it was 0.883; in the test with Bosutinib + Decitabine (first compound 0.03162 µM) it was 0.798. For the same cell line, the relative viability is 0.826 with Bosutinib + Decitabine (first compound 0.1 µM); 0.596 with Bosutinib + Decitabine (first compound 1 µM); 0.8 with Bosutinib + Bortezomib (first compound 0.01 µM); 0.773 with Bosutinib + Bortezomib (first compound 0.03162 µM); 0.765 in the test with Bosutinib + Bortezomib (first compound 0.1 µM); 0.77 in the test with Bosutinib + Bortezomib (first compound 1 µM). Moreover, the relative viability with Bosutinib + Crizotinib (first compound 0.01 µM) was 0.899; in the test with Bosutinib + Crizotinib (first compound 0.03162 µM) it was 0.939; with Bosutinib + Crizotinib (first compound 0.1 µM) it was 0.978; in the test with Bosutinib + Crizotinib (first compound 1 µM) it was 0.942; with Bosutinib + OSI-027 (first compound 0.01 µM) it was 0.812; with Bosutinib + OSI-027 (first compound 0.03162 µM) it was 0.685. For the same cell line, the relative viability with Bosutinib + OSI-027 (first compound 0.1 µM) stood at 0.745; with Bosutinib + OSI-027 (first compound 1 µM), 0.54.

As for PC-14, the relative viability came to 0.134 with Bosutinib + Pemetrexed (first compound 0.01 µM); 0.135 in the test with Bosutinib + Pemetrexed (first compound 0.03162 µM); 0.13 with Bosutinib + Pemetrexed (first compound 0.1 µM); 0.145 with Bosutinib + Pemetrexed (first compound 1 µM); 0.248 with Bosutinib + Decitabine (first compound 0.01 µM); 0.226 in the test with Bosutinib + Decitabine (first compound 0.03162 µM). Further, the relative viability with Bosutinib + Decitabine (first compound 0.1 µM) was 0.224; in the test with Bosutinib + Decitabine (first compound 1 µM) it was 0.174; with Bosutinib + Bortezomib (first compound 0.01 µM), 0.871; with Bosutinib + Bortezomib (first compound 0.03162 µM), 0.922; with Bosutinib + Bortezomib (first compound 0.1 µM), 0.808; with Bosutinib + Bortezomib (first compound 1 µM), 0.276. The relative viability was 0.807 with Bosutinib + Crizotinib (first compound 0.01 µM); 0.928 with Bosutinib + Crizotinib (first compound 0.03162 µM); 0.788 with Bosutinib + Crizotinib (first compound 0.1 µM); 0.313 with Bosutinib + Crizotinib (first compound 1 µM); 0.961 in the test with Bosutinib + OSI-027 (first compound 0.01 µM); 0.688 in the test with Bosutinib + OSI-027 (first compound 0.03162 µM). The values for the relative viability with Bosutinib + OSI-027 (first compound 0.1 µM) and with Bosutinib + OSI-027 (first compound 1 µM) were 0.773 and 0.192, respectively.

In the case of RERF-LC-KJ, the relative viability with Bosutinib + Pemetrexed (first compound 0.01 µM) stood at 0.504; with Bosutinib + Pemetrexed (first compound 0.03162 µM) it was 0.495; with Bosutinib + Pemetrexed (first compound 0.1 µM) it was 0.492; in the test with Bosutinib + Pemetrexed (first compound 1 µM), 0.478; with Bosutinib + Decitabine (first compound 0.01 µM), 0.643; in the test with Bosutinib + Decitabine (first compound 0.03162 µM), 0.656. Also, the relative viability with Bosutinib + Decitabine (first compound 0.1 µM) came out at 0.645; in the test with Bosutinib + Decitabine (first compound 1 µM), 0.737; in the test with Bosutinib + Bortezomib (first compound 0.01 µM) it was 1.08; with Bosutinib + Bortezomib (first compound 0.03162 µM) it was 1.08; with Bosutinib + Bortezomib (first compound 0.1 µM), 1.07; with Bosutinib + Bortezomib (first compound 1 µM) it was 1.05. For the same cell line, the relative viability stood at 0.863 in the test with Bosutinib + Crizotinib (first compound 0.01 µM); 0.827 in the test with Bosutinib + Crizotinib (first compound 0.03162 µM); 0.846 in the test with Bosutinib + Crizotinib (first compound 0.1 µM); 0.88 with Bosutinib + Crizotinib (first compound 1 µM); 0.594 with Bosutinib + OSI-027 (first compound 0.01 µM); 0.59 with Bosutinib + OSI-027 (first compound 0.03162 µM). In addition, the relative viability is 0.607 in the test with Bosutinib + OSI-027 (first compound 0.1 µM) and 0.473 with Bosutinib + OSI-027 (first compound 1 µM).

With SK-LU-1, the relative viability with Bosutinib + Pemetrexed (first compound 0.01 µM) amounted to 1.02; in the test with Bosutinib + Pemetrexed (first compound 0.03162 µM) it was 0.899; in the test with Bosutinib + Pemetrexed (first compound 0.1 µM), 0.982; in the test with Bosutinib + Pemetrexed (first compound 1 µM) it was 0.693; in the test with Bosutinib + Decitabine (first compound 0.01 µM), 0.646; in the test with Bosutinib + Decitabine (first compound 0.03162 µM), 0.644. The relative viability was 0.637 with Bosutinib + Decitabine (first compound 0.1 µM); 0.548 with Bosutinib + Decitabine (first compound 1 µM); 1.15 with Bosutinib + Bortezomib (first compound 0.01 µM); 1.21 in the test with Bosutinib + Bortezomib (first compound 0.03162 µM); 1.04 with Bosutinib + Bortezomib (first compound 0.1 µM); 0.922 with Bosutinib + Bortezomib (first compound 1 µM). The relative viability with Bosutinib + Crizotinib (first compound 0.01 µM) was found to be 0.9; with Bosutinib + Crizotinib (first compound 0.03162 µM), 0.819; with Bosutinib + Crizotinib (first compound 0.1 µM) it was 0.807; with Bosutinib + Crizotinib (first compound 1 µM) it was 0.48; with Bosutinib + OSI-027 (first compound 0.01 µM), 0.335; with Bosutinib + OSI-027 (first compound 0.03162 µM) it was 0.362. The relative viability with Bosutinib + OSI-027 (first compound 0.1 µM) was 0.331; with Bosutinib + OSI-027 (first compound 1 µM) it was 0.222.

As for SW 1573, the relative viability came out at 0.796 with Bosutinib + Pemetrexed (first compound 0.01 µM); 0.791 in the test with Bosutinib + Pemetrexed (first compound 0.03162 µM); 0.911 with Bosutinib + Pemetrexed (first compound 0.1 µM); 0.838 with Bosutinib + Pemetrexed (first compound 1 µM); 0.606 with Bosutinib + Decitabine (first compound 0.01 µM); 0.48 in the test with Bosutinib + Decitabine (first compound 0.03162 µM). In addition, the relative viability in the test with Bosutinib + Decitabine (first compound 0.1 µM) is 0.557; with Bosutinib + Decitabine (first compound 1 µM), 0.451; in the test with Bosutinib + Bortezomib (first compound 0.01 µM), 1.05; with Bosutinib + Bortezomib (first compound 0.03162 µM) it was 1.06; with Bosutinib + Bortezomib (first compound 0.1 µM), 0.917; with Bosutinib + Bortezomib (first compound 1 µM), 1.02. The relative viability in the test with Bosutinib + Crizotinib (first compound 0.01 µM) was 0.655; with Bosutinib + Crizotinib (first compound 0.03162 µM) it was 0.813; with Bosutinib + Crizotinib (first compound 0.1 µM), 0.917; with Bosutinib + Crizotinib (first compound 1 µM) it was 0.782; with Bosutinib + OSI-027 (first compound 0.01 µM), 0.695; with Bosutinib + OSI-027 (first compound 0.03162 µM), 0.67. Moreover, the relative viability with Bosutinib + OSI-027 (first compound 0.1 µM) was 0.656; with Bosutinib + OSI-027 (first compound 1 µM), 0.612.

Turning to UMC-11, the relative viability in the test with Bosutinib + Pemetrexed (first compound 0.01 µM) came to 0.795; in the test with Bosutinib + Pemetrexed (first compound 0.03162 µM) it was 0.755; in the test with Bosutinib + Pemetrexed (first compound 0.1 µM), 0.807; in the test with Bosutinib + Pemetrexed (first compound 1 µM) it was 0.707; in the test with Bosutinib + Decitabine (first compound 0.01 µM) it was 0.661; with Bosutinib + Decitabine (first compound 0.03162 µM), 0.555. For the same cell line, the relative viability with Bosutinib + Decitabine (first compound 0.1 µM) is 0.596; with Bosutinib + Decitabine (first compound 1 µM), 0.535; with Bosutinib + Bortezomib (first compound 0.01 µM), 0.683; with Bosutinib + Bortezomib (first compound 0.03162 µM), 0.778; with Bosutinib + Bortezomib (first compound 0.1 µM), 0.718; in the test with Bosutinib + Bortezomib (first compound 1 µM) it was 0.666. Further, the relative viability with Bosutinib + Crizotinib (first compound 0.01 µM) is 0.597; with Bosutinib + Crizotinib (first compound 0.03162 µM), 0.622; with Bosutinib + Crizotinib (first compound 0.1 µM), 0.555; in the test with Bosutinib + Crizotinib (first compound 1 µM) it was 0.579; with Bosutinib + OSI-027 (first compound 0.01 µM), 0.48; with Bosutinib + OSI-027 (first compound 0.03162 µM) it was 0.478. Besides, the figures for the relative viability in the test with Bosutinib + OSI-027 (first compound 0.1 µM) and with Bosutinib + OSI-027 (first compound 1 µM) were 0.423 and 0.402, respectively.
